# What was measured:
# [1] = Plasma protein binding, mouse; assay type: in vitro ADME; details: read-out: Plasma protein binding (h/r/m, %): m
# [2] = i.v. and p.o. exposure study, rat; assay type: in vivo
# Description: (§1) Mouse, rat and dog studies were conducted to assess i.v. and p.o. (oral) exposure.
# hERG = hERG (Homo sapiens, UniProt Q12809); test: hERG IC50
# [3] = tested on: Cell cycle (G1 attenuation); test: Cell cycle (G1 attenuation); assay type: cell-based
# CYP (isoform not given) = test: CYP IC50, HLM; assay type: in vitro ADME; details: human, human liver microsomes
# CYP3A4 = CYP3A4 (Homo sapiens, UniProt P08684); test: CYP3A4 inhibition with pre-incubation; assay type: in vitro ADME; details: footnote to CYP IC50, HLM
# [4] = i.v. and p.o. exposure study, dog; assay type: in vivo; details: plasma
# Description: as §1
# [5] = tested on: Diet induced obese (DIO) C57BL6 mice; test: Diet induced obese mouse study of compound A; assay type: in vivo
# Description: Diet induced obese (DIO) C57BL6 mice were provided with varying doses of compound A and fumagillin (fum). Tissue biomarkers in peri-renal fat, mesenteric fat and the liver were measured.
# (FIG. 3). Decrease in plasma insulin in mice, after once or twice a day administration of compound A vs. vehicle is also observed (FIG. 4).
# HT1080 = HT1080 EC50; assay type: cell-based; details: Homo sapiens, HT-1080; second of two values 28/8, key not given
# [6] = i.v. and p.o. exposure study, mouse; assay type: in vivo
# Description: as §1
# 72 receptors and enzymes = test: CEREP screen; details: at 10 μM across 72 receptors and enzymes
# [7] = Plasma protein binding, rat; assay type: in vitro ADME; details: read-out: Plasma protein binding (h/r/m, %): r (converted)
# Solubility = assay type: physicochemical; details: aqueous buffer; at pH 7.4
# [8] = Plasma protein binding, human; assay type: in vitro ADME; details: read-out: Plasma protein binding (h/r/m, %): h (converted)
# recombinant human MetAP2 = molecular target: T1, recombinant human MetAP2 (Homo sapiens, UniProt P50579); test: Recombinant human MetAP2 inhibition assay (MAS substrate, Amplex red fluorescence); assay type: biochemical; details: first value of the cell; read-out: MetAP2/MetAP1 IC50 (nM): MetAP2
# T1 construct: made in house; host or cells: Sf9 insect cells
# Description: Compounds are tested for their capacity to inhibit recombinant human MetAP2 activity using the following assay.
# Human recombinant MetAP2 expressed in Sf9 cells followed by affinity purification and EDTA treatment to remove endogenous active site cation was dialysed against MnCl2 to produce the manganese enzyme used in the assay. The assay was carried out for 30 minutes at 25° C. in 50 mM HEPES buffer containing 100 mM NaCl, pH 7.5 the presence of 0.75 mM Methionine-Alanine-Serine (MAS) substrate and 50 µg/ml amino acid oxidase using a dilution of purified MetAP2 giving >3-fold signal: noise. Cleavage of the substrate by MetAP2 and oxidation of free methionine by amino acid oxidase was detected and quantified using fluorescence generated by Amplex red (10-acetyl-3,7-dihydroxyphenoxazine) in combination with horseradish peroxidase which detects H2O2 released during the oxidation step. The fluorescent signal was detected using a multiwell fluorimeter. Compounds were diluted in DMSO prior to addition to assay buffer, the final DMSO concentration in the assay being 1%.
# IC50 values are calculated using the XLfit software package (version 2.0.5).
# [9] = liver/plasma, po, read-out: liver/plasma ratio
# [10] = plasma, iv, read-out: Plasma T1/2 (converted)
# Chain of hERG (Q12809 whole entry): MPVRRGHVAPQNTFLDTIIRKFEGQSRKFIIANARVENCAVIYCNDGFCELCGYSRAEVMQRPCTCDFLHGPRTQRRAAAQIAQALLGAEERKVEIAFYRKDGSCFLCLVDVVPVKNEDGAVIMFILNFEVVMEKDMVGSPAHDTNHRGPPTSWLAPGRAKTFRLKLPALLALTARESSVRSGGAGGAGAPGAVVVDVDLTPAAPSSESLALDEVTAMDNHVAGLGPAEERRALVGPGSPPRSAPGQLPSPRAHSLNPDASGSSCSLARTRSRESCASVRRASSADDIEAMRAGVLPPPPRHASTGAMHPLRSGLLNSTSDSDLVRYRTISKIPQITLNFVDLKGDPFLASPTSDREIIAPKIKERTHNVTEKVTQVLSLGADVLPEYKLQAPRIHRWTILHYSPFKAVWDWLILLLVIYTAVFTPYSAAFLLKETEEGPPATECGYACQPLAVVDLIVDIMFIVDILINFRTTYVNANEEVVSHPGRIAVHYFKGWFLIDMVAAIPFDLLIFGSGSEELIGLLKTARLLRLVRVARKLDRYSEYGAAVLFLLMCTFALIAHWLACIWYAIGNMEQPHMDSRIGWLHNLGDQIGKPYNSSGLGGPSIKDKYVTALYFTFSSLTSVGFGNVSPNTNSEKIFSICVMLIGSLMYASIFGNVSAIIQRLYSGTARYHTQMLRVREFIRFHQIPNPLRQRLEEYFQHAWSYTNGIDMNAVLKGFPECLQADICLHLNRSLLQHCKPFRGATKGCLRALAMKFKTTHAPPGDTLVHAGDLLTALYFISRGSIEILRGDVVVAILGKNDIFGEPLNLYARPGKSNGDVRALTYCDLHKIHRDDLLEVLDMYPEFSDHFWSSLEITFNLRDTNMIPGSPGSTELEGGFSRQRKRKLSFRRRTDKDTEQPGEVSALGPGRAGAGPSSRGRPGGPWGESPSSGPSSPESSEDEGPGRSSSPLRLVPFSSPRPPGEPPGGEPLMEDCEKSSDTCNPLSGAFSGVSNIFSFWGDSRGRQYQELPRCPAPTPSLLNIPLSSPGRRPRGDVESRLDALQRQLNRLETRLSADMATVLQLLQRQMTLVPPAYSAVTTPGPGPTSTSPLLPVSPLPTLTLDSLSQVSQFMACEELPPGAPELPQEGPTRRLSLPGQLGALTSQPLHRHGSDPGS
# Chain of CYP3A4 (P08684 whole entry): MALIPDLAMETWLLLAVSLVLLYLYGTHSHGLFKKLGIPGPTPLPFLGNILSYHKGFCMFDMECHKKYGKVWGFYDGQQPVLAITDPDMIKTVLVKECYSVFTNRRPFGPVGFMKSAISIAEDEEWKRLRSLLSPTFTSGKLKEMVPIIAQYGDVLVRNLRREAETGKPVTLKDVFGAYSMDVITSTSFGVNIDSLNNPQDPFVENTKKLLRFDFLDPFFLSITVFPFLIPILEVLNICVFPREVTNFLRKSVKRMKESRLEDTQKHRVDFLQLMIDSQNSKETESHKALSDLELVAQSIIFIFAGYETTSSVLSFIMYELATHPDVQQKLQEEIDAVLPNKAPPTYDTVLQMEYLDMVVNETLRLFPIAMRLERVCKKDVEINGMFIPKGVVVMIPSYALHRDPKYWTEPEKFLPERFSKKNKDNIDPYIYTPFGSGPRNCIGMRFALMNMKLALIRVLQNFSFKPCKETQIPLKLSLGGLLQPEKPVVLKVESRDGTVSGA
# T1 sequence (P50579 whole entry): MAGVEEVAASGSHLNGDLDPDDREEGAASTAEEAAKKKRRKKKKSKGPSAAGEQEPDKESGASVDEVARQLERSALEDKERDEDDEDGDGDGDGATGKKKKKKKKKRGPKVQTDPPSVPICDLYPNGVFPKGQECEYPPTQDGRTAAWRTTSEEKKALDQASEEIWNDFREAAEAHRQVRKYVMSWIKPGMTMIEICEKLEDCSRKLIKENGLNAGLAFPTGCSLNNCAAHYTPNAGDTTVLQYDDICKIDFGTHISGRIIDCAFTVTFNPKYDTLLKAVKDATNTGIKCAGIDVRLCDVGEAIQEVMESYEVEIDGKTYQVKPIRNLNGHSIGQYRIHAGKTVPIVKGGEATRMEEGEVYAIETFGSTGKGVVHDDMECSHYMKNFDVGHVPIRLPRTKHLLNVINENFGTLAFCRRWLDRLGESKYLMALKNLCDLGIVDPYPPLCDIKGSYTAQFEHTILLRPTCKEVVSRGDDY
smiles,measurement,setting,value
"CCN(CC)C/C=C\c1cc(F)ccc1S(=O)(=O)Nc1ccc2c(c1C(=O)O)OC[C@@H]1C[C@H]21 (single isomer, unassigned) [Example 12]",fraction unbound,[1],> 0.3
same,Kp,[2]; [9],39
same,clearance,"[2]; plasma, iv",54 mL/min/kg
same,half-life,[2]; [10],1.2 h
same,Vd,"[2]; plasma, iv, read-out: Vss",3.4 L/kg
same,AUC,"[2]; plasma, po",356 ng·h/mL
same,bioavailability,"[2]; plasma, po",22%
same,IC50,hERG,> 33000 nM
same,"Cell cycle (G1 attenuation, nM)",[3],3 nM
same,IC50,CYP (isoform not given),> 10 µM
same,CYP3A4 signal with pre-incubation,CYP3A4,*CYP3A4 signal observed with pre-incubation
same,clearance,[4]; iv,14 mL/min/kg
same,half-life,"[4]; iv, read-out: Plasma T1/2 (converted)",3.6 h
same,Vd,"[4]; iv, read-out: Vss",1.3 L/kg
same,AUC,[4]; po,711 ng·h/mL
same,bioavailability,[4]; po,20%
same,Expression of genes implicated in pathogenesis of fatty liver and fibrosis (liver mRNA microarray),"[5]; 3 mg/kg/bid×10 days, DIO obese mice, FIG. 6",favorably regulated
same,"Tissue biomarkers in peri-renal fat, mesenteric fat and the liver","[5]; DIO C57BL6 mice, varying doses, FIG. 1",primarily targets the liver
same,Liver weight,[5]; FIG. 5,reduction
same,Mesenteric adipose tissue weight,[5]; FIG. 5,reduction
same,Change in bodyweight after 10 days,"[5]; obese mice, increasing doses over 10 days, vs vehicle, FIG. 2",marked decrease in body weight
same,Blood cholesterol,"[5]; obese mice, vs vehicle, FIG. 3",marked lowering
same,Blood glucose,"[5]; obese mice, vs vehicle, FIG. 3",marked lowering
same,Plasma insulin,"[5]; once or twice a day administration vs vehicle, FIG. 4",Decrease
same,EC50,HT1080,8 nM
same,Kp,[6]; [9],38
same,clearance,"[6]; plasma, iv",126 mL/min/kg
same,half-life,[6]; [10],0.9 h
same,Vd,"[6]; plasma, iv, read-out: Vss",3.1 L/kg
same,AUC,"[6]; plasma, po",497 ng·h/mL
same,bioavailability,"[6]; plasma, po",53%
same,AMES,AMES,negative
same,"CEREP screen, inhibition",72 receptors and enzymes,<35% inhibition at 10 μM
same,fraction unbound,[7],0.189
same,solubility,Solubility,~100 µg/mL
same,fraction unbound,[8],0.228
same,IC50,recombinant human MetAP2,25 nM
